Reference: ChEMBL document CHEMBL4145498, “Novel inhibitors of the rRNA ErmC' methyltransferase to block resistance to macrolides, lincosamides, streptogramine B antibiotics” (Eur J Med Chem, 2018)

Key:
[1] = molecular target: T1, rRNA adenine N-6-methyltransferase (Staphylococcus aureus (strain N315)) (UniProt P0A0H2); assay: Inhibition of recombinant bacterial ErmC' expressed in Escherichia coli DH5alpha assessed as potentiation of erythromycin-mediated growth inhibition by measuring erythromycin MIC after 18 hrs by dilution method (reference value: > 2560 mg/L); conditions: Bacteria
T1 sequence (whole entry): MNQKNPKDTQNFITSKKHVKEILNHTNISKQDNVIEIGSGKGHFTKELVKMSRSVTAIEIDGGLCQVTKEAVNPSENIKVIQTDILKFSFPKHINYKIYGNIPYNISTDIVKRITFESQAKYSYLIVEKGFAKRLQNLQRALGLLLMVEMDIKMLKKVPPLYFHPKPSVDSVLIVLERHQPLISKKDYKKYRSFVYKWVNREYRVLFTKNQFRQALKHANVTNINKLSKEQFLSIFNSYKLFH

[2] = test system: Escherichia coli; assay: Antibacterial activity against Escherichia coli DH5alpha expressing recombinant bacterial ErmC' after 18 hrs by dilution method; format: ADME, organism-based, DH5[alpha]
[3] = molecular target: T2, rRNA adenine N-6-methyltransferase (Staphylococcus aureus (strain N315), UniProt P0A0H2); assay: Inhibition of bacterial C-terminal His6-tagged ErmC' (unknown origin) expressed in Escherichia coli BL21(DE3) assessed as decrease in rRNA methylation using [methyl-3H]AdoMet measured after 1 hr; set-up: species or system Bacteria
T2 sequence (P0A0H2 whole entry): T1 sequence (whole entry)

[4] = molecular target: T1, rRNA adenine N-6-methyltransferase (Staphylococcus aureus (strain N315)); assay: Inhibition of bacterial C-terminal His6-tagged ErmC' expressed in Escherichia coli BL21(DE3) assessed as decrease of protein binding to [gamma-33P]ATP-labeled 32-nt oligonucleotide at 6.25 mM after 30 mins by filter binding assay relative to control; conditions: Bacteria
[5] = molecular target: T1, rRNA adenine N-6-methyltransferase (Staphylococcus aureus (strain N315)); assay: Inhibition of bacterial C-terminal His6-tagged ErmC' expressed in Escherichia coli BL21(DE3) assessed as decrease of protein binding to [gamma-33P]ATP-labeled 32-nt oligonucleotide at 5.01 mM after 30 mins by filter binding assay relative to control; conditions: Bacteria
[6] = Cytotoxicity against HEK293 cells assessed as cell viability at 125 uM after 24 hrs by MTT assay relative to control; format: cell-based; conditions: human, read-out: Activity
[7] = Cytotoxicity against HEK293 cells assessed as cell viability at 1000 uM after 24 hrs by MTT assay relative to control; format: cell-based; conditions: human, read-out: Activity
[8] = molecular target: rRNA adenine N-6-methyltransferase (Staphylococcus aureus, UniProt P02979); assay: Inhibition of Staphylococcus aureus ErmC' expressed in Bacillus subtilis BD170 assessed as decrease in rRNA methylation using [methyl-3H]AdoMet measured after 120 mins by beta-plate counting method
[9] = Cytotoxicity against HEK293 cells assessed as cell viability at 125 to 1000 uM after 24 hrs by MTT assay relative to control; format: cell-based; conditions: human, read-out: %max

Sequence of rRNA adenine N-6-methyltransferase (Staphylococcus aureus, UniProt P02979) (P02979 whole entry): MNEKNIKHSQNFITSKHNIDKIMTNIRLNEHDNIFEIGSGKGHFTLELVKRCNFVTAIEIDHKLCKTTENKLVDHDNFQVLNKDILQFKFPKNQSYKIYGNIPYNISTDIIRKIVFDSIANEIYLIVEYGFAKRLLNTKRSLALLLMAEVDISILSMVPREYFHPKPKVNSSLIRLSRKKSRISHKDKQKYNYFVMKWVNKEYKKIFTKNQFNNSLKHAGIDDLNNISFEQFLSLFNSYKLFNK

Structure (SMILES): O=C(c1n[nH]c(=O)[nH]1)N1CCN(c2ccc(C(F)(F)F)cn2)CC1
- MIC [1]: 2560 µg/mL
- MIC [2]: >= 100 mg/L

Structure (SMILES): O=C(CCn1cncn1)NCc1cccc(NC(=O)C2CCCC2)c1
- IC50 [3]: Not Active
- MIC [1]: 2560 µg/mL
- MIC [2]: >= 100 mg/L

Structure (SMILES): O=C(CSc1nc2cccnc2[nH]1)Nc1nccs1
- MIC [1]: 2000 µg/mL
- MIC [2]: >= 100 mg/L

Structure (SMILES): CC(=O)c1c[nH]c(C(=O)N2CCN(c3ccc(C(F)(F)F)cn3)CC2)c1
- MIC [1]: 2560 µg/mL
- MIC [2]: >= 100 mg/L

Structure (SMILES): O=C(c1cn(-c2ccccc2)nn1)N1CCN(c2ccc(C(F)(F)F)cn2)CC1
- MIC [1]: 2560 µg/mL
- MIC [2]: >= 100 mg/L

Structure (SMILES): O=C(CSc1nc2[nH]cnc2c(=O)[nH]1)Nc1ccc(O)cc1
- IC50 [3]: Not Active
- MIC [1]: 2560 µg/mL
- MIC [2]: >= 100 mg/L

Structure (SMILES): COC(=O)c1sc2ccccc2c1OS(=O)(=O)c1ccc(Cl)cc1
- fold change (FC) [4]: 3

Structure (SMILES): O=C(c1c[nH]c(=O)[nH]1)N1CCN(c2ccc(C(F)(F)F)cn2)CC1
- MIC [1]: 2560 µg/mL
- MIC [2]: >= 100 mg/L
- fold change (FC) [5]: 2
- viability at 24 h, 125 µM [6]: 58%
- viability at 24 h, 1000 µM [7]: 68%

Structure (SMILES): O=C(NCCSc1ccccc1)c1ccc(-n2cncn2)cc1
- MIC [1]: 2560 µg/mL
- MIC [2]: >= 100 mg/L

Structure (SMILES): O=C(Cc1cccc(F)c1)Nc1cccc(-c2ccn[nH]2)c1
- MIC [1]: 2560 µg/mL
- MIC [2]: >= 100 mg/L

Structure (SMILES): O=C(Nc1cccc(NC(=O)c2cccc(F)c2)c1)c1ccncc1
- MIC [1]: 2560 µg/mL
- MIC [2]: >= 100 mg/L

Structure (SMILES): CC(C)c1ccc(NC(=S)N/N=C/c2cc(Cl)cc(Cl)c2O)cc1
- IC50 [8]: 450 nM

Structure (SMILES): O=C(c1cnn[nH]1)N1CCN(c2ccc(C(F)(F)F)cn2)CC1
- MIC [1]: 2560 µg/mL
- MIC [2]: >= 100 mg/L

Structure (SMILES): O=C(NCCOc1ccc2c(c1)OCO2)c1ccc2ccccc2n1
- MIC [1]: > 2560 µg/mL
- MIC [2]: >= 100 mg/L

Structure (SMILES): CN(C)c1ccc(CNC(=O)c2ccc(-n3cncn3)cc2)cc1
- MIC [1]: 2000 µg/mL
- MIC [2]: >= 100 mg/L

Structure (SMILES): O=C(CSc1nnc2c(n1)[nH]c1ccccc12)Nc1ccccn1
- MIC [1]: 2560 µg/mL
- MIC [2]: >= 100 mg/L

Structure (SMILES): Cn1cnnc1-c1cccc(NC(=O)Cc2cccc(F)c2)c1
- MIC [1]: 2560 µg/mL
- MIC [2]: >= 100 mg/L

Structure (SMILES): Nc1nc(N)nc(COC(=O)c2occc2COc2ccccc2)n1
- IC50 [3]: Not Active
- MIC [1]: 2560 µg/mL
- MIC [2]: >= 100 mg/L

Structure (SMILES): O=C(c1cc(Cl)c[nH]1)N1CCN(c2ncc(C(F)(F)F)cc2Cl)CC1
- MIC [1]: 2000 µg/mL
- MIC [2]: >= 100 mg/L

Structure (SMILES): CC(=O)Nc1ccc(S(=O)(=O)NCCc2ccncc2)cc1
- MIC [1]: > 2560 µg/mL
- MIC [2]: >= 100 mg/L

Structure (SMILES): CC(=O)Nc1nc(C)c(-c2csc(Nc3cccc(O)c3)n2)s1
- MIC [1]: 2000 µg/mL
- MIC [2]: >= 100 mg/L
- viability at 24 h, up to 1000 µM [9]: 4.5%

Structure (SMILES): Cc1cnc(C(=O)NCCNc2ccc(C(F)(F)F)cn2)cn1
- IC50 [3]: Not Active
- MIC [1]: 2560 µg/mL
- MIC [2]: >= 100 mg/L

Structure (SMILES): O=C(c1cc(C2CC2)n[nH]1)N1CCN(c2ccc(C(F)(F)F)cn2)CC1
- MIC [1]: 2560 µg/mL
- MIC [2]: >= 100 mg/L

Structure (SMILES): Cc1cnc(C(=O)NCCNc2ncccc2C(F)(F)F)cn1
- IC50 [3]: Not Active
- MIC [1]: 2560 µg/mL
- MIC [2]: >= 100 mg/L
